Measurements as given in the NIST ThermoML archive (doi:10.1016/j.fluid.2006.05.032).
Numbers after ± are expanded uncertainties.

Experiment: xn = mol fraction of the nth substance listed
Conditions: Liquid, Vibrating tube method, x1 = 1

CCCO [propan-1-ol] + Cc1ccccc1
mass density (293.15 K, 100 kPa): 803.5 ± 1 kg/m3
mass density (293.15 K, 5000 kPa): 807.3 ± 1 kg/m3
mass density (293.15 K, 10000 kPa): 810.9 ± 1 kg/m3
mass density (293.15 K, 15000 kPa): 814.3 ± 1 kg/m3
mass density (293.15 K, 20000 kPa): 817.7 ± 1 kg/m3
mass density (293.15 K, 25000 kPa): 821 ± 1 kg/m3
mass density (293.15 K, 30000 kPa): 824 ± 1 kg/m3
mass density (293.15 K, 35000 kPa): 827 ± 1.1 kg/m3
mass density (293.15 K, 40000 kPa): 829.9 ± 1.1 kg/m3
mass density (293.15 K, 45000 kPa): 832.7 ± 1.1 kg/m3
mass density (293.15 K, 50000 kPa): 835.4 ± 1.1 kg/m3
mass density (293.15 K, 55000 kPa): 838.1 ± 1.1 kg/m3
mass density (293.15 K, 60000 kPa): 840.7 ± 1.1 kg/m3
mass density (293.15 K, 65000 kPa): 843.2 ± 1.1 kg/m3
mass density (303.15 K, 100 kPa): 795.2 ± 1 kg/m3
mass density (303.15 K, 5000 kPa): 799.2 ± 1 kg/m3
mass density (303.15 K, 10000 kPa): 802.9 ± 1 kg/m3
mass density (303.15 K, 15000 kPa): 806.7 ± 1 kg/m3
mass density (303.15 K, 20000 kPa): 810.1 ± 1 kg/m3
mass density (303.15 K, 25000 kPa): 813.6 ± 1 kg/m3
mass density (303.15 K, 30000 kPa): 816.7 ± 1 kg/m3
mass density (303.15 K, 35000 kPa): 819.8 ± 1.1 kg/m3
mass density (303.15 K, 40000 kPa): 822.9 ± 1.1 kg/m3
mass density (303.15 K, 45000 kPa): 825.8 ± 1.1 kg/m3
mass density (303.15 K, 50000 kPa): 828.8 ± 1.1 kg/m3
mass density (303.15 K, 55000 kPa): 831.6 ± 1.1 kg/m3
mass density (303.15 K, 60000 kPa): 834.2 ± 1.1 kg/m3
mass density (303.15 K, 65000 kPa): 837 ± 1.1 kg/m3
mass density (313.15 K, 100 kPa): 787.6 ± 1 kg/m3
mass density (313.15 K, 5000 kPa): 791.9 ± 1 kg/m3
mass density (313.15 K, 10000 kPa): 795.9 ± 1 kg/m3
mass density (313.15 K, 15000 kPa): 799.7 ± 1 kg/m3
mass density (313.15 K, 20000 kPa): 803.3 ± 1 kg/m3
mass density (313.15 K, 25000 kPa): 806.8 ± 1 kg/m3
mass density (313.15 K, 30000 kPa): 810.2 ± 1 kg/m3
mass density (313.15 K, 35000 kPa): 813.5 ± 1.1 kg/m3
mass density (313.15 K, 40000 kPa): 816.6 ± 1.1 kg/m3
mass density (313.15 K, 45000 kPa): 819.7 ± 1.1 kg/m3
mass density (313.15 K, 50000 kPa): 822.7 ± 1.1 kg/m3
mass density (313.15 K, 55000 kPa): 825.5 ± 1.1 kg/m3
mass density (313.15 K, 60000 kPa): 828.3 ± 1.1 kg/m3
mass density (313.15 K, 65000 kPa): 831 ± 1.1 kg/m3
mass density (323.15 K, 100 kPa): 779.3 ± 1 kg/m3
mass density (323.15 K, 5000 kPa): 783.7 ± 1 kg/m3
mass density (323.15 K, 10000 kPa): 788 ± 1 kg/m3
mass density (323.15 K, 15000 kPa): 792 ± 1 kg/m3
mass density (323.15 K, 20000 kPa): 795.8 ± 1 kg/m3
mass density (323.15 K, 25000 kPa): 799.7 ± 1 kg/m3
mass density (323.15 K, 30000 kPa): 803.2 ± 1.1 kg/m3
mass density (323.15 K, 35000 kPa): 806.6 ± 1.1 kg/m3
mass density (323.15 K, 40000 kPa): 809.9 ± 1.1 kg/m3
mass density (323.15 K, 45000 kPa): 813 ± 1.1 kg/m3
mass density (323.15 K, 50000 kPa): 816.1 ± 1.1 kg/m3
mass density (323.15 K, 55000 kPa): 819 ± 1.1 kg/m3
mass density (323.15 K, 60000 kPa): 821.8 ± 1.1 kg/m3
mass density (323.15 K, 65000 kPa): 824.6 ± 1.1 kg/m3
mass density (333.15 K, 100 kPa): 770.5 ± 1 kg/m3
mass density (333.15 K, 5000 kPa): 775.4 ± 1 kg/m3
mass density (333.15 K, 10000 kPa): 780 ± 1 kg/m3
mass density (333.15 K, 15000 kPa): 784.3 ± 1 kg/m3
mass density (333.15 K, 20000 kPa): 788.4 ± 1 kg/m3
mass density (333.15 K, 25000 kPa): 792 ± 1 kg/m3
mass density (333.15 K, 30000 kPa): 795.7 ± 1.1 kg/m3
mass density (333.15 K, 35000 kPa): 799.2 ± 1.1 kg/m3
mass density (333.15 K, 40000 kPa): 802.6 ± 1.1 kg/m3
mass density (333.15 K, 45000 kPa): 805.9 ± 1.1 kg/m3
mass density (333.15 K, 50000 kPa): 809.1 ± 1.1 kg/m3
mass density (333.15 K, 55000 kPa): 812.3 ± 1.1 kg/m3
mass density (333.15 K, 60000 kPa): 815.2 ± 1.1 kg/m3
mass density (333.15 K, 65000 kPa): 818.1 ± 1.1 kg/m3
mass density (343.15 K, 100 kPa): 761 ± 1 kg/m3
mass density (343.15 K, 5000 kPa): 766 ± 1 kg/m3
mass density (343.15 K, 10000 kPa): 770.7 ± 1 kg/m3
mass density (343.15 K, 15000 kPa): 775.3 ± 1 kg/m3
mass density (343.15 K, 20000 kPa): 779.6 ± 1 kg/m3
mass density (343.15 K, 25000 kPa): 783.7 ± 1.1 kg/m3
mass density (343.15 K, 30000 kPa): 787.6 ± 1.1 kg/m3
mass density (343.15 K, 35000 kPa): 791.2 ± 1.1 kg/m3
mass density (343.15 K, 40000 kPa): 794.7 ± 1.1 kg/m3
mass density (343.15 K, 45000 kPa): 798.3 ± 1.1 kg/m3
mass density (343.15 K, 50000 kPa): 801.6 ± 1.1 kg/m3
mass density (343.15 K, 55000 kPa): 804.6 ± 1.1 kg/m3
mass density (343.15 K, 60000 kPa): 807.7 ± 1.1 kg/m3
mass density (343.15 K, 65000 kPa): 810.6 ± 1.1 kg/m3
mass density (353.15 K, 100 kPa): 752.2 ± 1 kg/m3
mass density (353.15 K, 5000 kPa): 757.6 ± 1 kg/m3
mass density (353.15 K, 10000 kPa): 762.7 ± 1 kg/m3
mass density (353.15 K, 15000 kPa): 767.6 ± 1 kg/m3
mass density (353.15 K, 20000 kPa): 772.1 ± 1 kg/m3
mass density (353.15 K, 25000 kPa): 776.3 ± 1.1 kg/m3
mass density (353.15 K, 30000 kPa): 780.4 ± 1.1 kg/m3
mass density (353.15 K, 35000 kPa): 784.1 ± 1.1 kg/m3
mass density (353.15 K, 40000 kPa): 787.7 ± 1.1 kg/m3
mass density (353.15 K, 45000 kPa): 791.8 ± 1.1 kg/m3
mass density (353.15 K, 50000 kPa): 795.1 ± 1.1 kg/m3
mass density (353.15 K, 55000 kPa): 798.5 ± 1.1 kg/m3
mass density (353.15 K, 60000 kPa): 801.7 ± 1.1 kg/m3
mass density (353.15 K, 65000 kPa): 805 ± 1.1 kg/m3
